Values quoted from earlier work in patent US20260054267A1, “PRODUCTION OF ENCAPSULATED NANOPARTICLES AT COMMERCIAL SCALE” (ICEUTICA PTY LTD., priority 2009, published 2026).

Conditions: slowly absorbed by the body

Tmax: 4 to 5 h
SMILES: Cc1cnc(NC(=O)C2=C(O)c3ccccc3S(=O)(=O)N2C)s1 [Meloxicam]
